According to patent publication US20260327628A1, “AN RNA APTAMER THAT BINDS TO ASP7967 OR AN ANALOGUE THEREOF” (priority 2022, published 2026):

What was measured:
cpAC17-4 RNA aptamer = assay: Affinity measurement by SPR, cpAC17-4 immobilized chip; assay type: binding; conditions: cpAC17-4 with 3′ poly(A) tail
Method: Affinity measurements of the aptamers with the ligands by SPR were performed as described by Chang et al.^53 with some modifications. Experiments were performed on Biacore T200 (Cytiva) at 25° C. For immobilization of the capture DNA (5′-/5AmMC6/[…]-3′ (SEQ ID NO: 32),/5AmMC6/: 5′ amino modifier C6, IDT), 1×HBS-N (10 mM HEPES, pH 7.4, 150 mM NaCl) was used as the running buffer. CM5 chip surface was washed by two injections of NaOH/NaCl solution (25 mM NaOH, 1 M NaCl) at 20 μl min^−1 for 30 s. […]
The dsDNA templates for in vitro transcription of the aptamers were prepared by primer extension of two oligo DNAs using Q5 High-Fidelity DNA Polymerase (NEB). […] RNA concentrations were determined by absorbance at 260 nm according to OligoCalc^54. […] An aptamer ligand was injected at 30 μl min^−1 for 120 s to monitor association, and then the dissociation kinetics was monitored for 180 s in the SPR running buffer. […] The raw data were analysed by Biacore T200 Evaluation Software 1.0 using 1:1 Langmuir interaction model. […] Dissociation constant (KD) was determined from the ratio of the association and the dissociation rate constants (KD=koff/kon) or by equilibrium analysis. […]

[1] = tested on: hEPO secretion from HEK293 cells; assay: In vitro hEPO assay (ELISA), AAV vector plasmids in HEK293 cells; assay type: cell-based, human
Method: For the hEPO ELISA assay in FIG. 9b, HEK293 cells were trypsinized and diluted to 2.0×10^5 cells ml^−1 and 100 μl per well were seeded onto a 96-well collagen plate. Cells in each well were transfected with 100 ng of the pAAV-CMV-hEPO-p3-d pAAV-CMV-hEPO-control, pAAV-MCS-based plasmids encoding human EPO with or without CPP-a8c-AC17-4 riboswitch using 0.3 μl of TransIT-293 Transfection Reagent according to the manufacturer's instructions. The medium in each well was replaced with fresh medium with (up to 10 μM) or without ASP7967 5 h after transfection. At 24 h after transfection, the medium in each well was collected and stored at −20° C. To measure hEPO concentrations, the medium was diluted 50-fold by PBS and further diluted 50-fold by the specimen diluent buffer included in the ELISA kit. The diluted samples were measured using Human Erythropoietin/EPO Quantikine ELISA Kit (R&D systems, Inc.) and Infinite M200 PRO microplate reader (TECAN).
Then, a8c-AC17-4-CPP was inserted into the 3′ UTR region of hEPO gene expressed from the CMV promoter in a plasmid containing AAV2 inverted terminal repeats (ITR) (pAAV-CMV-hEPO-a8c-AC17-4-CPP) (FIG. 9a). The plasmid pAAV-CMV-hEPO-a8c-AC17-4-CPP was transfected into HEK293 cells in the absence or presence (0.1~10 μM) of ASP7967. Two days after transfection, hEPO concentrations in the culture medium were measured by ELISA. […]

Kd (cpAC17-4 RNA aptamer) [nM]	SMILES	hEPO level in medium relative to control plasmid ([1]; 10 μM ASP7967, pAAV-CMV-hEPO-a8c-AC17-4-CPP) [%]	fold induction at 10 µM ([1]; Homo sapiens, HEK293, 24 h, read-out: induction of hEPO)
30	Fc1ccc(Nc2nc(NCc3ncccn3)nc(Nc3ccccc3)n2)cc1 [ASP2905, reference compound]		
	Fc1ccc(Nc2nc(NCc3ncccn3)nc(Nc3ccc(F)cc3)n2)cc1 [ASP7967]	29	10
